# According to article PMC6026870, “Selective induction of cancer cell death by VDAC1‐based peptides and their potential use in cancer therapy” (Molecular Oncology, 2018):
# Several values for one entry are separate records, joined by “and”; a condition that tells them apart may be missing. Equal values may be shown once.
# What was measured:
# [1] = tested on: HeLa cells (HK‐I in cytosolic fraction); experiment: Mitochondria‐bound HK detachment, cell fractionation and immunoblotting; format: cell-based, human; details: peptide 3, 5, 10 μM, 3 h, digitonin […], immunoblot (Fig. 4E)
# Method: Peptide‐induced HK detachment from mitochondria to the cytosol was also analyzed by immunoblotting. […] Samples were centrifuged at 12 000 g at 4 °C for 10 min, and the obtained supernatants (cytosolic fraction) and pellets (mitochondria) were analyzed by immunoblotting using anti‐HK‐I, anti‐VDAC1, and anti‐GAPDH antibodies, and then with secondary HRP‐conjugated antibodies.
# [2] = biological target: T1, HK‐I (Homo sapiens, UniProt P19367); experiment: HK activity assay with purified recombinant HK‐I; format: biochemical; details: HK‐I 13 µg/ml pre‐incubated with peptide; 1 mM ATP, G6PDH‐coupled, absorbance at 340 nm (Fig. S3B)
# T1 construct: His; made in house; host or cells: Escherichia coli BL21
# T1 sequence (P19367 1-917): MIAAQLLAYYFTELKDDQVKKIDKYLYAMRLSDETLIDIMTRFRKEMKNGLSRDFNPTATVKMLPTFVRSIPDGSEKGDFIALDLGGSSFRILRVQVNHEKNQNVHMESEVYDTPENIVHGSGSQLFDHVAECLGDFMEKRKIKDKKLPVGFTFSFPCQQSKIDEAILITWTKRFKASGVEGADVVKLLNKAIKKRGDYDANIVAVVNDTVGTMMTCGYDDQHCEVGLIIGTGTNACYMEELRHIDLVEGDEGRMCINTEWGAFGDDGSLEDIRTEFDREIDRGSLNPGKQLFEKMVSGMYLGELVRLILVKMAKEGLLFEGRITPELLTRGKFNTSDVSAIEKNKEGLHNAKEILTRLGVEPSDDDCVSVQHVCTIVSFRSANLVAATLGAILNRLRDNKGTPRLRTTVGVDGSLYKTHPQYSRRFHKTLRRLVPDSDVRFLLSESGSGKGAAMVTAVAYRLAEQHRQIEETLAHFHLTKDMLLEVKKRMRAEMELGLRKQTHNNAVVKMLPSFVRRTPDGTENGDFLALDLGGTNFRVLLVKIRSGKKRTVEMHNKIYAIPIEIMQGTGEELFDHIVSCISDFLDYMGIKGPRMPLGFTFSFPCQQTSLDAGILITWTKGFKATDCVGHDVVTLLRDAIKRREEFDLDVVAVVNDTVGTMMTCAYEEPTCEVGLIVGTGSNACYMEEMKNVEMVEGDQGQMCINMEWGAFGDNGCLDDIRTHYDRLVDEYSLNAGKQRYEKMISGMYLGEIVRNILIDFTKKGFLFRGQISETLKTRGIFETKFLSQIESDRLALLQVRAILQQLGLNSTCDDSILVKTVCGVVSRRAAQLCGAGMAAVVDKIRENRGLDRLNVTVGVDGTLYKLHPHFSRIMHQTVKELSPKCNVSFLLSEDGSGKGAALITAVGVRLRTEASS
# Method: Human HK‐I and HK‐II were cloned into plasmid pET‐His DNA and expressed in Escherichia coli BL21 upon IPTG induction. HK was purified from lysed cells using a HiTrap nickel column (GE Healthcare). Following dialysis, the imidazole‐eluted protein was further purified using a Blue HiTrap column (GE Healthcare). HK was eluted using 10 mM glucose, 20 mM Tris/HCl (pH 8.5), 20% glycerol, and 1.5 mM glucose‐6‐phosphate. Fractions were analyzed by SDS/PAGE and tested for HK activity. The purified active fractions were combined and stored in aliquots at −80 °C.
# Change in absorbance at 340 nm (NADH production) was spectrophotometrically measured following addition of 1 mM ATP and 0.05 unit·mL^−1 glucose‐6‐phosphate dehydrogenase.
# Purified HK-I (13 µg/ml) was pre-incubated with the indicated concentrations of Tf-D-LP4 (●) or R-Tf-D-LP4 (○) and assayed for HK activity as described in Materials and Methods. Change in absorbance at 340 nm (NADH production) was spectrophotometrically measured following addition of 1 mM ATP, and 0.05 unit/ml glucose-6-phosphate dehydrogenase. C. Tf-D-LP4 and R-Tf-D-LP4 solubility. The peptides were dissolved to a final concentration of 5 mM in 5% DMSO and diluted to 1.1 mM in HBSS. Peptide absorbance in the supernatant was measured at 280 nm following centrifugation at 12,000g before and after 75 min incubation at 24 °C. […] Cell death was analyzed using PI and FACS analysis. […]
# [3] = tested on: U‐87MG cell xenograft; experiment: Subcutaneous xenograft mouse model, tumor growth; format: in vivo; details: U‐87MG s.c. xenograft, nude mice; intratumoral 40 or 60 μM, 20 μL per tumor every two days; 14 days; vs HBSS control; n = 5
# Method: (§1) U‐87MG cells (3 × 10^6/mouse), A549 cells (5 × 10^6/mouse), or MDA‐MB‐231 cells (3 × 10^6/mouse) were inoculated subcutaneously (s.c.) into the hind leg flanks of athymic 8‐week‐old male nude mice (Envigo, Huntingdon, UK). Tumor size was measured using a digital caliper and volume was calculated, and when reached 50–100 mm^3 for each tumor type, mice were randomly divided into two groups (five mice per group). […] The xenografts were injected (two points, 20 μL per tumor) every two days. Beginning on the day of inoculation, mouse weight and tumor volume were monitored twice a week. Experiments were terminated after 14, 29, or 20 days for U‐87MG‐, MDA‐MB‐231‐, or A549‐based tumors, respectively. The mice were sacrificed and tumors were excised. Half of each tumor was fixed in 4% buffered formaldehyde, paraffin‐embedded, and processed for IHC, while the second half was frozen in liquid nitrogen for immunoblotting and qPCR analyses. These experimental protocols were approved by the Institutional Animal Care and Use Committee of Ben‐Gurion University.
# [4] = tested on: A549 cell xenograft; experiment: Subcutaneous xenograft mouse model, tumor growth; format: in vivo; details: A549 s.c. xenograft, nude mice; intratumoral 40 or 60 μM, 20 μL per tumor every two days; 20 days; vs HBSS control; n = 5
# Method: as §1
# [5] = tested on: MDA‐MB‐231 cell xenograft; experiment: Subcutaneous xenograft mouse model, tumor growth; format: in vivo; details: MDA‐MB‐231 s.c. xenograft, nude mice; intratumoral 40 or 60 μM, 20 μL per tumor every two days; 29 days; vs HBSS control; n = 5
# Method: as §1
structure (smiles),measurement,setting,value
CC[C@H](C)[C@H](NC(=O)[C@H](Cc1ccc(O)cc1)NC(=O)[C@@H]1CCCN1C(=O)[C@H](CCCNC(=N)N)NC(=O)[C@H](Cc1c[nH]cn1)NC(=O)[C@@H](CO)NC(=O)[C@@H](Cc1c[nH]c2ccccc12)NC(=O)[C@H](NC(=O)[C@@H](Cc1c[nH]c2ccccc12)NC(=O)[C@@H](CCC(=O)O)NC(=O)[C@@H](CCCCN)NC(=O)[C@@H](CCCCN)NC(=O)[C@@H](CC(C)C)NC(=O)[C@@H](CCC(=O)O)NC(=O)[C@H](NC(=O)[C@@H](C)NC(=O)[C@H](NC(=O)[C@@H](CC(N)=O)NC(=O)[C@@H](CC(C)C)NC(=O)[C@@H](C)NC(=O)[C@@H](Cc1c[nH]c2ccccc12)NC(=O)[C@H](NC(=O)[C@@H](C)NC(=O)CNC(=O)[C@@H](CC(N)=O)NC(=O)[C@@H](CO)NC(=O)[C@@H](CC(N)=O)NC(=O)[C@@H](CCCCN)NC(=O)[C@@H](Cc1c[nH]c2ccccc12)NC(=O)[C@H](NC(=O)[C@@H](Cc1c[nH]c2ccccc12)NC(=O)[C@H](N)CCCCN)[C@H](C)O)[C@H](C)O)C(C)C)[C@H](C)O)[C@H](C)O)C(=O)N[C@@H](C)C(=O)N[C@@H](Cc1c[nH]cn1)C(=O)O [R‐Tf‐D‐LP4],increase in HK in the cytosolic fraction,[1],about twofold
same,inhibition of purified HK‐I activity,[2],inhibits HK-I activity
same,decrease in tumor volume,[3],~ 80% and 70–80%
same,decrease in tumor volume,[4],~ 80% and 70–80%
same,decrease in tumor volume,[5],~ 80% and 70–80%
